Results: patent US11891634B2, “PDE5A destabilizing domains” (The Board of Trustees of the Leland Stanford Junior …, priority 2017, dated 2024)

How the values were obtained:
Assay type in all cases: cell-based, human
[1] = system: HCT 116 cells transduced with the PDE5A DD derived GFP constructs; test: Response to Tadalafil, GFP expression by FACS in HCT116; settings: for MFI / Stabilization ratio with Tadalafil: 48 hours, HCT116; for Basal expression: Table 21, MFI with DMSO / parental HCT116, Tadalafil experiment
Procedure: (§1) PDE5AN (#3) was cloned as AcGFP fusion into pELNS vector carrying mCherry marker and packaged in lentiviral vectors. HCT116 cells were transduced with the construct and stable integrants were selected by cell sorting using mCherry marker. Cells were treated with vehicle (dimethyl sulfoxide, DMSO) or varying doses of Tadalafil (TDF) for 48 hrs with doses ranging from 0.01 μM to 100 μM. Following the treatment, cells were analyzed for GFP expression using FACS. Basal expression was calculated as the ratio of GFP signal in the absence of ligand for a given cell line to auto fluorescence of parental HCT-116 cells. Stabilization ratio was calculated as the ratio of the GFP signal observed in the presence of stabilizing ligand to the signal from the same cell line in the absence of ligand.
HCT 116 cells transduced with the PDE5A DD derived GFP constructs were also tested with increasing doses of Tadalafil. The HCT116 cells were incubated for 48 hours with Tadalafil starting at dose 0.01 μM to 100 μM. The GFP intensity of the Tadalafil treated samples was compared to the parental untransduced HCT116 and DMSO treated cells for each construct. The mean fluorescence intensity was calculated for each sample and used to calculate the stabilization ratios as well as the basal expression for each construct. The stabilization ratios are shown in Table 19 and Table 20 and the basal expression is show in Table 21.

[2] = system: HCT 116 cells transduced with the PDE5A DD derived GFP constructs; test: Response to Vardenafil, GFP expression by FACS in HCT116; settings: for MFI / Stabilization ratio with Vardenafil: 48 hours, HCT116; for Basal: Table 15, MFI with DMSO / parental HCT116, Vardenafil experiment
Procedure: as §1, with “Mutations were created in PDE5A (535-860) catalytic domain using site directed mutagenesis and the mutants were” for “PDE5AN (#3) was”, “constructs” for “construct”, “10 μM Vardenafil (VDF)” for “varying doses of Tadalafil (TDF)”, “hours.” for “hrs with doses ranging from 0.01 μM to 100 μM.”
HCT 116 cells transduced with the PDE5A DD derived GFP constructs were also tested with increasing doses of Vardenafil. The HCT116 cells were incubated for 48 hours with Vardenafil starting at a dose of 0.002 μM to 30 μM. The GFP intensity of the Vardenafil treated samples was compared to the parental untransduced HCT116 and DMSO treated cells for each construct. The mean fluorescence intensity was calculated for each sample and used to calculate the stabilization ratios as well as the basal expression for each construct. The GFP expression was measured using flow cytometry and the mean fluorescence intensity (MFI) was calculated for each sample. The stabilization ratios are shown in Table 13 and Table 14 and the basal expression is show in Table 15.

[3] = system: HCT116 cells transduced with the constructs; test: Response to Sildenafil, GFP expression by flow cytometry in HCT116; settings: for MFI / Stabilization ratio with Sildenafil: 48 hours, HCT116; for Basal expression: Table 26, MFI with DMSO / parental HCT116, Sildenafil experiment
Procedure: Similar experiments were performed in HCT116 cells using sildenafil. The above-mentioned DDs were cloned as AcGFP fusion into pELNS vector carrying mCherry marker and packaged in lentiviral vectors. HCT116 cells were transduced with the constructs and stable integrants were selected by cell sorting using mCherry marker. Cells were treated with sildenafil at the following μM concentrations: 0.01, 0.02, 0.05, 0.14, 0.41, 1.23, 3.7, 11.11, 33.33, and 100 for a duration of 48 hours. The fluorescence was analyzed by flow cytometry and the mean fluorescence intensity was calculated for all samples. […] The stabilization ratios are shown in Table 24 and Table 25 and the basal expression is show in Table 26.

PDE5AC (#13): AcGFP fused to C-terminal DD 535-860 of PDE5A (Q589R, Y676D, L738H), SEQ ID NO. 24
MFI ([1]; DMSO (no Tadalafil)): 14416
Basal expression [1]: 11.26
Stabilization ratio with Tadalafil ([1]; Tadalafil 0.01 μM vs DMSO): 1.0
MFI ([1]; Tadalafil 0.01 μM): 14388
Stabilization ratio with Tadalafil ([1]; Tadalafil 0.02 μM vs DMSO): 1.0
MFI ([1]; Tadalafil 0.02 μM): 14908
Stabilization ratio with Tadalafil ([1]; Tadalafil 0.05 μM vs DMSO): 1.1
MFI ([1]; Tadalafil 0.05 μM): 16488
MFI ([1]; Tadalafil 0.14 μM): 21292
Stabilization ratio with Tadalafil ([1]; Tadalafil 0.41 μM vs DMSO): 2.3
MFI ([1]; Tadalafil 0.41 μM): 33396
Stabilization ratio with Tadalafil ([1]; Tadalafil 1.23 μM vs DMSO): 4.1
MFI ([1]; Tadalafil 1.23 μM): 58867
Stabilization ratio with Tadalafil ([1]; Tadalafil 3.7 μM vs DMSO): 5.7
MFI ([1]; Tadalafil 3.7 μM): 81755
Stabilization ratio with Tadalafil ([1]; Tadalafil 11.11 μM vs DMSO): 6.4
MFI ([1]; Tadalafil 11.11 μM): 92484
Stabilization ratio with Tadalafil ([1]; Tadalafil 33.33 μM vs DMSO): 6.7
MFI ([1]; Tadalafil 33.33 μM): 96959
Stabilization ratio with Tadalafil ([1]; Tadalafil 100 μM vs DMSO): 7.3
MFI ([1]; Tadalafil 100 μM): 105048
MFI ([2]; DMSO (no Vardenafil)): 14659
Basal (DMSO/Parental) ([2]; Table 10, GFP signal without ligand / auto fluorescence of parental HCT-116): 11.3
Basal [2]: 7.50
Stabilization ratio with Vardenafil ([2]; Vardenafil 0.002 μM vs DMSO): 1.3
MFI ([2]; Vardenafil 0.002 μM): 18393
MFI ([2]; Vardenafil 0.005 μM): 27661
Stabilization ratio with Vardenafil ([2]; Vardenafil 0.014 μM vs DMSO): 4.1
MFI ([2]; Vardenafil 0.014 μM): 59673
Stabilization ratio with Vardenafil ([2]; Vardenafil 0.041 μM vs DMSO): 5.3
MFI ([2]; Vardenafil 0.041 μM): 78117
Stabilization ratio with Vardenafil ([2]; Vardenafil 0.123 μM vs DMSO): 6.0
MFI ([2]; Vardenafil 0.123 μM): 88571
Stabilization ratio with Vardenafil ([2]; Vardenafil 0.370 μM vs DMSO): 6.8
MFI ([2]; Vardenafil 0.370 μM): 99160
Stabilization ratio with Vardenafil ([2]; Vardenafil 1.111 μM vs DMSO): 6.8
MFI ([2]; Vardenafil 1.111 μM): 99377
Stabilization ratio with Vardenafil ([2]; Vardenafil 3.333 μM vs DMSO): 7.2
MFI ([2]; Vardenafil 3.333 μM): 105500
Stabilization ratio with Vardenafil ([2]; Vardenafil 10 μM vs DMSO): 6.7
MFI ([2]; Vardenafil 10 μM): 97493
Stabilization ratio with Vardenafil ([2]; Vardenafil 30 μM vs DMSO): 7.2
MFI ([2]; Vardenafil 30 μM): 105335
MFI ([3]; DMSO (no Sildenafil)): 15122
Stabilization ratio with Sildenafil ([3]; Sildenafil 0.01 μM vs DMSO): 1.0
MFI ([3]; Sildenafil 0.01 μM): 14787
Stabilization ratio with Sildenafil ([3]; Sildenafil 0.02 μM vs DMSO): 1.1
MFI ([3]; Sildenafil 0.02 μM): 17318
MFI ([3]; Sildenafil 0.05 μM): 26905
Stabilization ratio with Sildenafil ([3]; Sildenafil 0.14 μM vs DMSO): 3.2
MFI ([3]; Sildenafil 0.14 μM): 48611
Stabilization ratio with Sildenafil ([3]; Sildenafil 0.41 μM vs DMSO): 4.6
MFI ([3]; Sildenafil 0.41 μM): 69042
Stabilization ratio with Sildenafil ([3]; Sildenafil 1.23 μM vs DMSO): 5.6
MFI ([3]; Sildenafil 1.23 μM): 84772
Stabilization ratio with Sildenafil ([3]; Sildenafil 3.70 μM vs DMSO): 5.5
MFI ([3]; Sildenafil 3.70 μM): 82519
Stabilization ratio with Sildenafil ([3]; Sildenafil 11.11 μM vs DMSO): 6.1
MFI ([3]; Sildenafil 11.11 μM): 92732
Stabilization ratio with Sildenafil ([3]; Sildenafil 33.33 μM vs DMSO): 6.2
MFI ([3]; Sildenafil 33.33 μM): 93336
Stabilization ratio with Sildenafil ([3]; Sildenafil 100.00 μM vs DMSO): 5.0
MFI ([3]; Sildenafil 100.00 μM): 76090
Basal expression [3]: 11.7

PDE5AC (#25): AcGFP fused to C-terminal DD 535-860 of PDE5A (Q541R, F559L, Q589R, H678R, I824T), SEQ ID NO. 35
MFI ([1]; DMSO (no Tadalafil)): 9297
Basal expression [1]: 7.26
Stabilization ratio with Tadalafil ([1]; Tadalafil 0.01 μM vs DMSO): 1.0
MFI ([1]; Tadalafil 0.01 μM): 9233
Stabilization ratio with Tadalafil ([1]; Tadalafil 0.02 μM vs DMSO): 1.0
MFI ([1]; Tadalafil 0.02 μM): 8860
Stabilization ratio with Tadalafil ([1]; Tadalafil 0.05 μM vs DMSO): 1.0
MFI ([1]; Tadalafil 0.05 μM): 9404
Stabilization ratio with Tadalafil ([1]; Tadalafil 0.14 μM vs DMSO): 1.0
MFI ([1]; Tadalafil 0.14 μM): 9478
Stabilization ratio with Tadalafil ([1]; Tadalafil 0.41 μM vs DMSO): 1.1
MFI ([1]; Tadalafil 0.41 μM): 9858
Stabilization ratio with Tadalafil ([1]; Tadalafil 1.23 μM vs DMSO): 1.3
MFI ([1]; Tadalafil 1.23 μM): 12432
Stabilization ratio with Tadalafil ([1]; Tadalafil 3.7 μM vs DMSO): 2.1
MFI ([1]; Tadalafil 3.7 μM): 19294
Stabilization ratio with Tadalafil ([1]; Tadalafil 11.11 μM vs DMSO): 3.4
MFI ([1]; Tadalafil 11.11 μM): 31763
Stabilization ratio with Tadalafil ([1]; Tadalafil 33.33 μM vs DMSO): 5.8
MFI ([1]; Tadalafil 33.33 μM): 54151
Stabilization ratio with Tadalafil ([1]; Tadalafil 100 μM vs DMSO): 7.6
Stabilization ratio with Tadalafil ([1]; Tadalafil 100 μM vs DMSO, listed as PDE5AN (#25)): highest stabilization ratio
MFI ([1]; Tadalafil 100 μM): 70389
MFI ([2]; DMSO (no Vardenafil)): 9555
Basal [2]: 4.89
Stabilization ratio with Vardenafil ([2]; Vardenafil 0.002 μM vs DMSO): 1.0
MFI ([2]; Vardenafil 0.002 μM): 9737
Stabilization ratio with Vardenafil ([2]; Vardenafil 0.005 μM vs DMSO): 1.0
MFI ([2]; Vardenafil 0.005 μM): 9694
Stabilization ratio with Vardenafil ([2]; Vardenafil 0.014 μM vs DMSO): 1.0
MFI ([2]; Vardenafil 0.014 μM): 9767
Stabilization ratio with Vardenafil ([2]; Vardenafil 0.041 μM vs DMSO): 1.1
MFI ([2]; Vardenafil 0.041 μM): 10468
Stabilization ratio with Vardenafil ([2]; Vardenafil 0.123 μM vs DMSO): 1.4
MFI ([2]; Vardenafil 0.123 μM): 13348
Stabilization ratio with Vardenafil ([2]; Vardenafil 0.370 μM vs DMSO): 2.1
MFI ([2]; Vardenafil 0.370 μM): 20522
Stabilization ratio with Vardenafil ([2]; Vardenafil 1.111 μM vs DMSO): 4.1
MFI ([2]; Vardenafil 1.111 μM): 38958
Stabilization ratio with Vardenafil ([2]; Vardenafil 3.333 μM vs DMSO): 6.9
MFI ([2]; Vardenafil 3.333 μM): 66337
Stabilization ratio with Vardenafil ([2]; Vardenafil 10 μM vs DMSO): 9.9
MFI ([2]; Vardenafil 10 μM): 94642
Stabilization ratio with Vardenafil ([2]; Vardenafil 30 μM vs DMSO): 12.7
MFI ([2]; Vardenafil 30 μM): 120927
MFI ([3]; DMSO (no Sildenafil)): 10217
Stabilization ratio with Sildenafil ([3]; Sildenafil 0.01 μM vs DMSO): 1.0
MFI ([3]; Sildenafil 0.01 μM): 10169
Stabilization ratio with Sildenafil ([3]; Sildenafil 0.02 μM vs DMSO): 0.9
MFI ([3]; Sildenafil 0.02 μM): 9354
Stabilization ratio with Sildenafil ([3]; Sildenafil 0.05 μM vs DMSO): 1.0
MFI ([3]; Sildenafil 0.05 μM): 10120
Stabilization ratio with Sildenafil ([3]; Sildenafil 0.14 μM vs DMSO): 1.0
MFI ([3]; Sildenafil 0.14 μM): 10128
Stabilization ratio with Sildenafil ([3]; Sildenafil 0.41 μM vs DMSO): 1.0
MFI ([3]; Sildenafil 0.41 μM): 10207
Stabilization ratio with Sildenafil ([3]; Sildenafil 1.23 μM vs DMSO): 1.2
MFI ([3]; Sildenafil 1.23 μM): 12328
Stabilization ratio with Sildenafil ([3]; Sildenafil 3.70 μM vs DMSO): 1.7
MFI ([3]; Sildenafil 3.70 μM): 17466
Stabilization ratio with Sildenafil ([3]; Sildenafil 11.11 μM vs DMSO): 2.6
MFI ([3]; Sildenafil 11.11 μM): 26947
Stabilization ratio with Sildenafil ([3]; Sildenafil 33.33 μM vs DMSO): 4.6
MFI ([3]; Sildenafil 33.33 μM): 46897
Stabilization ratio with Sildenafil ([3]; Sildenafil 100.00 μM vs DMSO): 5.1
MFI ([3]; Sildenafil 100.00 μM): 51774
Basal expression [3]: 7.9
